From patent US8129340B2, “Inhibitors of protein phosphatase 1, GADD34 and protein phosphatase 1/GADD34 complex, preparation and uses thereof” (Institut Gustave Roussy, priority 2006, dated 2012)

Key:
[1] = tested on: CT26 tumour cells; assay: Anti-tumour vaccination: dying treated CT26 cells injected in one flank, later challenge with live tumour cells; format: in vivo, BALB/c mice; conditions: dying CT26 cells treated with agent injected into one flank, live tumour cells in opposite flank 8 days later
[2] = tested on: CRT; assay: Biotinylation of cell surface proteins, 2D gel electrophoresis and mass spectrometry; format: cell-based, murine; conditions: CT26 cells, short-term (4 h) treatment, versus untreated
[3] = tested on: ERP57; assay: Biotinylation of cell surface proteins, 2D gel electrophoresis and mass spectrometry (ERP57 spot); format: cell-based, murine; conditions: CT26 cells, short-term (4 h) treatment
[4] = tested on: CT26 cells; assay: Phagocytosis of CT26 tumour cells by dendritic cells (FACS, double positive cells); format: cell-based, BALB/c mice; conditions: for phagocytosis of drug-treated tumour cells by DC: within a few hours after treatment
Experimental: FIG. 3A, FIG. 3B: Correlation between tumour cell phagocytosis and CRT exposure. Tumour cells labelled with Cell Tracker Green were cultured with CD11c-expressing DC and the percentage of DC taking up tumour cells was determined (A) and correlated with the CRT surface exposure (B), measured as in FIG. 2E.
Mitoxantrone-treated or control cells were incubated with a blocking chicken anti-CRT antibody, followed by detection of phagocytosis by CD.
Cells were transfected with the indicated siRNAs and optionally treated with rCRT, followed by immunoblot (FIG. 3D) detection of surface CRT (FIG. 3E) and phagocytosis by DC (FIG. 3F). Results are triplicates (X±SD) and representative of three independent experiments. * denotes statistically significant differences using the Student t′ test at p<0.001.
BM cells were flushed from the tibias and femurs of BALB/c mice with culture medium composed of RPMI 1640 medium (Invitrogen Life Technologies) supplemented with 10% heat-inactivated FBS (Invitrogen), sodium pyruvate, 50 μM 2-ME (Sigma), 10 mM HEPES (pH 7.4), and penicillin/streptomycin (Invitrogen). After one centrifugation, BM cells were resuspended in Tris-ammonium chloride for 2 min to lyse RBC. After one more centrifugation, BM cells (1×10^6 cells/ml) were cultured in medium supplemented with 100 ng/ml recombinant mouse FLT3 ligand (R&D systems) in 6-well plates (Costar Corning). After 7 days, the non-adherent and loosely adherent cells were harvested with Versene, washed and transferred in 12-well plates (1.5×10^6 cells/plate) for cocultures with tumour cells.
In 12-well plates, […] adherent CT26 cells were labelled with Celltracker Green (Calbiochem) and then incubated with drugs. In some experiments viable CT26 were coated with 2 μg/10^6 cells of chicken anti-CRT antibody (ABR affinity bioreagents) or an isotype control for 30 min prior to washing and feeding to dendritic cells Cs. Alternatively CT26 cells were coated with 2 μg/10^6 cells of rCRT on ice for 30 min and washed twice prior to addition to dendritic cells. Cells were then harvested, washed three times with medium supplemented with FBS and cocultured with immature DC for 2 hours at a ratio of 1:1 and 1:5. At the end of the incubation, cells were harvested with versene, pooled with non-adherent cells present in the supernatant, washed and stained with CD11c-FITC antibody. Phagocytosis was assessed by FACS analysis of double positive cells. Phagocytic indexes refer to the ratio between values obtained at 4° C. and values obtained at 37° C. of co-incubation between DC and tumour cells.

[5] = tested on: cell surface CRT; assay: CRT exposure on enucleated CT26 cells (cytoplasts); format: cell-based, murine
Experimental: FIG. 5A: CRT exposure after anthracyclin treatment in the absence of a nucleus. Intact cells or enucleated cells (cytoplasts) were treated for 2 hours with mitoxantrone, followed by immunofluorescence detection of CRT exposure. Inserts show the effective removal of Hoechst 33342-stainable nuclei from the cytoplasts.
Trypsinized CT26 cells were enucleated as described in the publication of Andreau, K. et al. Contagious apoptosis facilitated by the HIV-1 envelope. Fusion-induced cell-to-cell transmission of a lethal signal. J. Cell Sci. 117, 5643-53 (2004). Briefly, cells were treated in 2 ml of complete RPMI medium containing cytochalasin B (10 μg/ml; Sigma) and DNase I (80 U/ml; Sigma). Cell suspension was adjusted to a final concentration of 5×10^6/ml and incubated at 37° C. for 45 minutes before being layered onto a previously prepared discontinuous Ficoll (Pharmacia) density gradient (3 ml of 100%, in 1 ml of 90% and 3 ml of 55% Ficoll Paque layer containing 5 μg/ml cytochalasin B and 40 U/ml DNase I; gradients were prepared in ultracentrifuge tubes and pre-equilibrated at 37° C. in a CO2 incubator overnight). […] Then the cell surface CRT was detected (see materials and methods) and the viability was determined by with propidium iodine staining (2 μg/ml, Sigma) for 5 min followed by cytofluorometric analysis. […] Phagocytosis was assessed by FACS analysis of double positive cells.

[6] = tested on: CRT; assay: CRT exposure on tumour cell lines of murine origin (MCA205, B16F10, J558); format: cell-based
[7] = tested on: CRT; assay: CRT exposure on tumour cell lines of human origin (HeLa, A549, HCT116); format: cell-based
[8] = tested on: CT26 tumours; assay: Intratumoural treatment of established CT26 tumours in immunocompetent mice; format: in vivo, BALB/c mice (wild type); conditions: for therapeutic effect of single agent on established tumours, immunocompetent mice: single intratumoural injection, 14-day-old CT26 tumours
[9] = tested on: CT26 tumours; assay: Intratumoural treatment of established CT26 tumours in immunodeficient mice; format: in vivo, athymic nu/nu Balb/c mice; conditions: for therapeutic effect of single agent on established tumours, nu/nu mice: single intratumoural injection
[10] = tested on: calreticulin; assay: Calreticulin exposure by immunofluorescence staining and flow cytometry, HCT116 cells; format: cell-based, human; conditions: 2 hours
Experimental: (§1) HCT116 cells (FIG. 7A) or CT26 cells (FIG. 7B) were cultured in complete mediums supplemented with 10% fetal calf serum alone or in the presence of the control peptide (VKKKKIKREIKI-lkaravafsekv) (SEQ ID NO: 17) or the PP1/GADD34 inhibitory peptide (VKKKKIKREIKI-lkarkvrfsekv, SEQ ID NO: 4. denominated PP1 peptide) for 2 hours. Cells were washed twice with PBS and fixed in PFA (4% w/v) for 5 min. Cells were stained with an antibody against calreticulin (pAb from Abeam, ab2907) at 1:200 dilution or isotype control, in staining buffer (PBS, 1% FCS) for 30 min on ice, followed by washing. An anti-rabbit Alexa fluor 488 immunoglobulin conjugate (Molecular Probes-Invitrogen) diluted at 1:500 was added for an additional 30 min on ice before washing and analysed by flow cytometry (FACScan, Becton Dickinson). Propidium Iodide (50 μg/ml, Becton Dickinson) was added to the samples to label and exclude permeabilized (dead) cells.

[11] = tested on: calreticulin; assay: Calreticulin exposure by immunofluorescence staining and flow cytometry, CT26 cells (peptide test); format: cell-based, murine; conditions: 2 hours
Experimental: as §1

[12] = tested on: CT26 colon cancer; assay: Intratumoural peptides with systemic mitomycin C against established CT26 colon cancer (tumor size, survival); format: in vivo, BALB/c mice; conditions: 10 micrograms peptide in situ plus systemic mitomycin C
Experimental: CT26 cells were injected se in BALB/c mice. At a size of 20 mm^2, the palpable tumors were directly inoculated in situ with 10 micrograms of either of the three following peptides (see below) alone or together with a systemic treatment with mitomycin C (as described in Obeid et al. Nat Med 2007) or PBS. • 1. Cell-penetrable PP1 inhibitory peptide VKKKKIKREIKI-LKARKVRFSEKV (SEQ ID NO: 4) • 2. Cell-penetrable control peptide VKKKKIKREIKI-LKARAVRFSEKV (SEQ ID NO: 18) • 3. Cell penetration sequence VKKKKIKREIKI (SEQ ID NO: 3) alone admixed together with PP1-inhibitory peptide LKARKVRFSEKV (SEQ ID NO: 2) alone.
5 animals/group were included in this experiment.

[13] = tested on: DC; assay: DC maturation ex vivo; format: cell-based; conditions: alone, over a large range of concentrations
[14] = tested on: CT26 colon cancer cells; assay: In vivo anti-cancer vaccination: treated tumour cells in one flank and live tumour cells in opposite flank simultaneously; parameters: species or system BALB/c mice
Experimental: FIG. 4A: In vivo anti-cancer vaccination depends on CRT. CT26 colon cancer cells were transfected with the indicated siRNAs, then treated with rCRT and/or mitoxantrone (as in FIG. 3D) and the anti-tumour response was measured by simultaneously challenging BALB/c mice with mitoxantrone treated tumour cells in one flank and untreated live tumour cells in the opposite flank.
FIG. 4D: CRT-mediated amelioration of the immune response against etoposide-treated tumour cells. CT26 cells were treated for 24 h with etoposide (or PBS) and rCRT was optionally absorbed to the cell surface (inserts), followed by simultaneous injection of the etoposide ±rCRT-treated tumour cells and live tumour cells in opposite flanks and monitoring of tumour growth.
(§2) Tumours were evaluated weekly, using a caliper.

[15] = tested on: CT26 tumour cells; assay: Local immune response: tumour cells injected into foot pad, IFN-γ secretion by draining popliteal lymph node cells (ELISA); format: in vivo, Balb/c mice
Experimental: FIG. 4B: Priming of T cell responses depending on CRT. CT26 tumour cells were left untransfected or transfected with the indicated siRNAs, then treated with medium alone, mitomycin C or mitoxantrone and injected into the right food pad of Balb/c mice. Five days later, mononuclear cells from the draining popliteal lymph nodes were challenged with freeze-thawed CT26 cells, and IFN-γ secretion was assessed at 72 hrs.
FIG. 4C: Exogenous supply of CRT enhances the immunogenicity of CRT-negative dying cells. CT26 cells lacking CRT expression after depletion of CRT with a siRNA and mitoxantrone treatment or after mitomycin treatment were coated with rCRT (inserts) and then injected in the food pad, followed by assessment of the IFN-γ secretion by cells from the draining lymph nodes as in FIG. 4B.
as §2

[16] = intratumoural injection with etoposide or mitomycin C

COc1cccc2c1C(=O)c1c(O)c3c(c(O)c1C2=O)C[C@@](O)(C(=O)CO)C[C@@H]3O[C@H]1C[C@H](N)[C@H](O)[C@H](C)O1 [doxorubicin]
immunogenicity of cell death (protection against tumour growth, anti-tumour vaccination) [1]: elicited immunogenic cell death
induction of surface CRT (factor) [2]: 6
surface exposure of ERP57 [3]: specifically induced
phagocytosis of drug-treated tumour cells by DC [4]: acquired the property to be phagocytosed by DC quickly

O=C1c2c(O)ccc(O)c2C(=O)c2c(NCCNCCO)ccc(NCCNCCO)c21 [mitoxantrone]
immunogenicity of cell death (protection against tumour growth, anti-tumour vaccination) [1]: elicited immunogenic cell death
phagocytosis of drug-treated tumour cells by DC [4]: acquired the property to be phagocytosed by DC quickly
time to CRT exposure in cytoplasts [5]: ≤ 1 h
CRT exposure on murine tumour cell lines [6]: induced CRT exposure
CRT exposure on human tumour cell lines [7]: induced CRT exposure
therapeutic effect of single agent on established tumours, immunocompetent mice [8]: able to cause their permanent regression in some but not all cases
therapeutic effect of single agent on established tumours, nu/nu mice [9]: no cure

VKKKKIKREIKI-LKARKVRFSEKV (VKKKKIKREIKILKARKVRFSEKV; Artificial sequence including a fragment of GADD34 and a translocation motif.) [SEQ ID NO:4, fragment of GADD34 fused to a plasma membrane translocation motif]
exposure of calreticulin, HCT116 cells [10]: capable of inducing the exposure of calreticulin
exposure of calreticulin, CT26 cells [11]: capable of inducing the exposure of calreticulin
therapeutic effect of combination with mitomycin C [12]: synergistic therapeutic effects

B1: rCRT: recombinant CRT protein, which binds to the surface of the cells (protein, UniProt P27797 18-417, looked up)
Calreticulin: EPAVYFKEQFLDGDGWTSRWIESKHKSDFGKFVLSSGKFYGDEEKDKGLQTSQDARFYALSASFEPFSNKGQTLVVQFTVKHEQNIDCGGGYVKLFPNSLDQTDMHGDSEYNIMFGPDICGPGTKKVHVIFNYKGKNVLINKDIRCKDDEFTHLYTLIVRPDNTYEVKIDNSQVESGSLEDDWDFLPPKKIKDPDASKPEDWDERAKIDDPTDSKPEDWDKPEHIPDPDAKKPEDWDEEMDGEWEPPVIQNPEYKGEWKPRQIDNPDYKGTWIHPEIDNPEYSPDPSIYAYDNFGVLGLDLWQVKSGTIFDNFLITNDEAYAEEFGNETWGVTKAAEKQMKDKQDEEQRLKEEEEDKKRKEEEEAEDKEDDEDKDEDEEDEEDKEEDEEEDVPGQAKDEL
restoration of phagocytosis by DC in CRT-siRNA cells ([4]; rCRT added to cell surface of CRT-siRNA transfected cells): could reverse the defect induced by the CRT-specific siRNA
DC maturation [13]: could not promote DC maturation ex vivo
immunogenicity of mitoxantrone-treated CT26 cells (efficacy of anti-tumour vaccination) ([14]; cells injected into the flank of Balb/c mice): this defect was restored
anti-tumour immune response to etoposide-treated cells coated with rCRT ([14]; etoposide-treated cells coated with rCRT): elicited a vigorous anti-tumour immune response in vivo
anti-cancer immune response to rCRT-coated live cells ([14]; rCRT absorbed to cell surface without prior treatment with cell death inducers): failed to elicit an anti-cancer immune response
immunogenicity of mitoxantrone-treated CT26 cells (interferon-γ production by T cells from popliteal lymph node) ([15]; cells injected into the foot pad): this defect was restored
immunogenicity of mitomycin-treated cells coated with rCRT (IFN-γ) ([15]; rCRT absorbed to plasma membrane of mitomycin-treated cells): greatly enhanced the immunogenicity of cells that usually fail to induce an immune response
effect of rCRT injected into a distant site ([8]; contralateral subcutaneous rCRT plus intratumoural etoposide): did not ameliorate the antitumoural effects of intratumorally injected etoposide
therapeutic effect combined with a cell death inducer (etoposide or mitomycin C), immunocompetent mice [8, 16]: able to cause tumour regression
therapeutic effect of single agent on established tumours, immunocompetent mice [8]: no major therapeutic effect
therapeutic effect combined with a cell death inducer (etoposide or mitomycin C), immunodeficient mice [9, 16]: not in immunodeficient
therapeutic effect of single agent on established tumours, nu/nu mice [9]: no major therapeutic effect
